This is an account of results in US6277882A, “Utilization of alkyl hydrogen fumarates for treating psoriasis, psoriatic arthritis, neurodermatitis and regional enteritis” (priority 1998, dated 2001).

Structures can show the parent of a compound that is named as a salt.

For series [1] the following is noted: high dosages; parenteral, dermal and particularly oral route; cited from earlier work.
The nature of series [2]: Pharmaceutical equivalency: comparison of pharmacokinetic data (methyl hydrogen fumarate level). Particulars: rat, in vivo, 100 mg/kg, dosage 100 mg/kg body-wt.
A further series can be described thus: in vivo. To be noted: rat, oral administration; for LD50: in vivo, po. The method, then:
Before the clinical trial, the acute toxicity of methyl hydrogen fumarate was tested by oral administration to rats.
Acute toxicity on rats (oral administration)

For series [3], the system named is toxic effects of Mitomycin C and Aflatoxin. Particulars: cited from earlier work.
The next series concerns Ehrlich ascites tumour. To be noted: mice; cited from earlier work.
The next series deals with phosphoslipase A2. To be noted: cited from earlier work.
In the next series the test system is microbes. To be noted: cited from earlier work.
Another series relates to psoriasis. Particulars: cited from earlier work.

Take `NC(=O)/C=C/C(N)=O` [fumaramide]: the “rate of side effects and toxicity” value in series [1] is “unacceptable rate of side effects and high toxicity”.

Consider `COC(=O)/C=C/C(=O)O.[Ca]` [Methyl hydrogen fumarate calcium salt], for which the Cmax in series [2] (female) is 107 µg/mL; in series [2] (male), 51.3 µg/mL.

With `O=C(O)/C(O)=C(\O)C(=O)O` [dihydroxy fumaric acid], the “rate of side effects and toxicity” value in series [1] was “unacceptable rate of side effects and high toxicity”.

On to `COC(=O)/C=C/C(=O)O` [Methyl hydrogen fumarate, methyl hydrogen fumarate], for which the LD50 in the series “in vivo” (female) stood at 1780 mg/kg; in the series “in vivo” (male), 2610 mg/kg. Further, the “Lowest lethal dose in mg/kg” value is recorded as 1,470.0 mg/kg in the series “in vivo” (female) and 2,150.0 mg/kg in the series “in vivo” (male). In addition, the Cmax was 84.8 µg/mL in series [2] (female) and 69.9 µg/mL in series [2] (male).

Turning to `N#C/C=C/C#N` [fumaronitrile], in series [1], the “rate of side effects and toxicity” value is “unacceptable rate of side effects and high toxicity”.

Take `O=C(O)/C=C/C(=O)O` [fumaric acid]: the “toxic effects of Mitomycin C and Aflatoxin” value in series [3] was “reduces the toxic effects of Mitomycin C and Aflatoxin”. Besides, the “growth of the Ehrlich ascites tumour” value in the series with Ehrlich ascites tumour is “inhibits the growth of the Ehrlich ascites tumour in mice”. The “stimulation of phosphoslipase A2” value in the series with phosphoslipase A2 was “stimulated”. Moreover, the antimicrobial effect entry in the series with microbes is “antimicrobial effect”. Further, the anti-psoriatic effect entry in the series with psoriasis was “anti-psoriatic”.
